According to PubChem BioAssay (NCI):
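How tested: cells in 96-well plates exposed to compound for 48 hours at five concentrations. Here, GI50 denotes the concentration required for 50% inhibition of growth. At the TGI there is no net growth.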

Assays:
Test in all cases: NCI anticancer screen, dose series, 48 h
[1] = system: MDA-MB-435
[2] = system: OVCAR-5 ovarian
[3] = system: MDA-MB-231 breast
[4] = system: HCT-116 colon
[5] = system: SR leukemia
[6] = system: MALME-3M melanoma
[7] = system: RPMI-8226 leukemia
[8] = system: TK-10 renal
[9] = system: OVCAR-4 ovarian
[10] = system: DU-145 prostate
[11] = system: HT29 colon
[12] = system: SN12C renal
[13] = system: A498 renal
[14] = system: COLO 205 colon
[15] = system: ACHN renal
[16] = system: SW-620 colon
[17] = system: K-562 leukemia
[18] = system: MOLT-4 leukemia
[19] = system: CAKI-1 renal
[20] = system: HS 578T breast
[21] = system: LOX IMVI melanoma
[22] = system: NCI-H522 lung
[23] = system: NCI-H460 lung
[24] = system: UACC-257 melanoma
[25] = system: RXF 393 renal
[26] = system: 786-0 renal
[27] = system: EKVX NSCLC
[28] = system: SK-MEL-28 melanoma
[29] = system: SK-MEL-2 melanoma
[30] = system: UACC-62 melanoma
[31] = system: NCI-H23 lung
[32] = system: A549 NSCLC
[33] = system: SF-539 CNS
[34] = system: HCT-15 colon
[35] = system: SF-268 CNS
[36] = system: BT-549 breast
[37] = system: SNB-19 CNS
[38] = system: PC-3 prostate
[39] = system: SK-MEL-5 melanoma
[40] = system: UO-31 renal
[41] = system: HOP-92 NSCLC
[42] = system: M14 melanoma
[43] = system: SK-OV-3 ovarian
[44] = system: MCF7 breast
[45] = system: HCC-2998 colon
[46] = system: OVCAR-3 ovarian
[47] = system: IGROV1 ovarian
[48] = system: SF-295 CNS
[49] = system: HOP-62 NSCLC
[50] = system: NCI/ADR-RES ovarian
[51] = system: NCI-H226 lung
[52] = system: HL-60(TB) leukemia
[53] = system: U251 CNS
[54] = system: SNB-75 CNS
[55] = system: CCRF-CEM leukemia
[56] = system: OVCAR-8 ovarian
[57] = system: KM12 colon

Question: Which results are given for `CC1OC(O[C@@H]2C(O)C(CO)OC(O[C@H]3COC(O[C@H]4CC[C@]5(C)[C@H]6CC[C@]78OC[C@@]9(CC[C@](C)(C=O)C[C@H]97)[C@H](O)C[C@@]8(C)[C@]6(C)CC[C@H]5C4(C)C)[C@@H](OC4OC(CO)[C@@H](O)[C@@H](O)[C@@H]4O)[C@@H]3O)[C@H]2OC2OC[C@@H](O)[C@@H](O)[C@@H]2O)[C@@H](O)[C@@H](O)[C@H]1O` (stereo partly specified)?
Answer: GI50 [1]: 1.85 µM; TGI [1]: 3.57 µM; GI50 [2]: 1.86 µM; TGI [2]: 3.42 µM; GI50 [3]: 1.76 µM; TGI [3]: 3.51 µM; GI50 [4]: 1.48 µM; TGI [4]: 2.98 µM; GI50 [5]: 0.357 µM; TGI [5]: 1.24 µM; GI50 [6]: 1.74 µM; TGI [6]: 3.51 µM; GI50 [7]: 1.73 µM; TGI [7]: 4.28 µM; GI50 [8]: 2.79 µM; TGI [8]: 4.51 µM; GI50 [9]: 1.84 µM; TGI [9]: 3.93 µM; GI50 [10]: 1.95 µM; TGI [10]: 3.71 µM; GI50 [11]: 1.99 µM; TGI [11]: 4.02 µM; GI50 [12]: 1.7 µM; TGI [12]: 3.51 µM; GI50 [13]: 2.26 µM; TGI [13]: 3.98 µM; GI50 [14]: 1.62 µM; TGI [14]: 3.16 µM; GI50 [15]: 1.5 µM; TGI [15]: 2.92 µM; GI50 [16]: 1.84 µM; TGI [16]: 3.7 µM; GI50 [17]: 2.2 µM; TGI [17]: 5.68 µM; GI50 [18]: 1.13 µM; TGI [18]: 3.98 µM; GI50 [19]: 1.89 µM; TGI [19]: 3.48 µM; GI50 [20]: 1.92 µM; TGI [20]: 4.14 µM; GI50 [21]: 1.74 µM; TGI [21]: 3.39 µM; GI50 [22]: 1.97 µM; TGI [22]: 3.75 µM; GI50 [23]: 1.88 µM; TGI [23]: 3.83 µM; GI50 [24]: 2.03 µM; TGI [24]: 3.77 µM; GI50 [25]: 0.811 µM; TGI [25]: 2.4 µM; GI50 [26]: 2.14 µM; TGI [26]: 3.97 µM; GI50 [27]: 1.93 µM; TGI [27]: 3.84 µM; GI50 [28]: 1.69 µM; TGI [28]: 3.29 µM; GI50 [29]: 2.33 µM; TGI [29]: 4.24 µM; GI50 [30]: 1.97 µM; TGI [30]: 3.82 µM; GI50 [31]: 1.89 µM; TGI [31]: 3.74 µM; GI50 [32]: 2.11 µM; TGI [32]: 4.04 µM; GI50 [33]: 1.61 µM; TGI [33]: 3.1 µM; GI50 [34]: 2.23 µM; TGI [34]: 5.01 µM; GI50 [35]: 1.91 µM; TGI [35]: 3.91 µM; GI50 [36]: 1.77 µM; TGI [36]: 3.5 µM; GI50 [37]: 1.81 µM; TGI [37]: 3.71 µM; GI50 [38]: 1.95 µM; TGI [38]: 3.64 µM; GI50 [39]: 2.38 µM; TGI [39]: 5.81 µM; GI50 [40]: 1.35 µM; TGI [40]: 2.82 µM; GI50 [41]: 0.982 µM; TGI [41]: 2.62 µM; GI50 [42]: 1.71 µM; TGI [42]: 3.4 µM; GI50 [43]: 1.92 µM; TGI [43]: 3.49 µM; GI50 [44]: 1.98 µM; TGI [44]: 4.11 µM; GI50 [45]: 1.95 µM; TGI [45]: 3.52 µM; GI50 [46]: 1.98 µM; TGI [46]: 3.82 µM; GI50 [47]: 1.82 µM; TGI [47]: 3.93 µM; GI50 [48]: 1.76 µM; TGI [48]: 3.31 µM; GI50 [49]: 1.76 µM; TGI [49]: 3.47 µM; GI50 [50]: 1.97 µM; TGI [50]: 4.15 µM; GI50 [51]: 1.89 µM; TGI [51]: 3.98 µM; GI50 [52]: 0.598 µM; TGI [52]: 2.19 µM; GI50 [53]: 2.12 µM; TGI [53]: 3.87 µM; GI50 [54]: 1.7 µM; TGI [54]: 3.25 µM; GI50 [55]: 1.21 µM; TGI [55]: 4.34 µM; GI50 [56]: 2.1 µM; TGI [56]: 4.28 µM

Question: What does the source list for `NC(N)=Nc1ccc(Oc2cccc(Nc3ccc(Cl)cc3)c2)cn1`?
Answer: GI50 [7]: 2.02 µM; TGI [7]: 5.08 µM; GI50 [8]: 1.69 µM; TGI [8]: 3.3 µM; GI50 [10]: 1.76 µM; TGI [10]: 3.27 µM; GI50 [13]: 1.17 µM; TGI [13]: 2.66 µM; GI50 [15]: 1.73 µM; TGI [15]: 3.13 µM; GI50 [16]: 1.83 µM; TGI [16]: 3.55 µM; GI50 [57]: 2.08 µM; TGI [57]: 4.58 µM; GI50 [17]: 2.66 µM; TGI [17]: 8.21 µM; GI50 [19]: 1.64 µM; TGI [19]: 3.17 µM; GI50 [20]: 1.99 µM; TGI [20]: 4.52 µM; GI50 [22]: 1.53 µM; TGI [22]: 3.13 µM; GI50 [25]: 1.78 µM; TGI [25]: 3.37 µM; GI50 [28]: 1.67 µM; TGI [28]: 3.12 µM; GI50 [30]: 1.74 µM; TGI [30]: 3.28 µM; GI50 [31]: 1.66 µM; TGI [31]: 3.24 µM; GI50 [33]: 1.65 µM; TGI [33]: 3.13 µM; GI50 [35]: 1.72 µM; TGI [35]: 3.75 µM; GI50 [38]: 1.46 µM; TGI [38]: 2.84 µM; GI50 [40]: 1.71 µM; TGI [40]: 3.28 µM; GI50 [41]: 1.07 µM; TGI [41]: 2.39 µM; GI50 [43]: 2.11 µM; TGI [43]: 4.16 µM; GI50 [46]: 1.8 µM; TGI [46]: 3.63 µM; GI50 [50]: 4.05 µM; TGI [50]: 20.5 µM; GI50 [52]: 2.52 µM; TGI [52]: 4.75 µM; GI50 [54]: 1.27 µM; TGI [54]: 2.57 µM; GI50 [55]: 2.04 µM; TGI [55]: 5.27 µM; GI50 [56]: 1.97 µM; TGI [56]: 4.46 µM
